Assay results published in ChEMBL document CHEMBL5653631, “A Potent and Selective ULK1 Inhibitor Suppresses Autophagy and Sensitizes Cancer Cells to Nutrient Stress” (iScience, 2018).
Each block holds one molecule with its values, some of them ahead of it.

Key:
[1] = biological target: T1, Homeodomain-interacting protein kinase 4 (Homo sapiens) (UniProt Q8NE63); assay: Inhibition of human recombinant HIPK4 at 500 nM related to control ULK1
T1 sequence (whole entry): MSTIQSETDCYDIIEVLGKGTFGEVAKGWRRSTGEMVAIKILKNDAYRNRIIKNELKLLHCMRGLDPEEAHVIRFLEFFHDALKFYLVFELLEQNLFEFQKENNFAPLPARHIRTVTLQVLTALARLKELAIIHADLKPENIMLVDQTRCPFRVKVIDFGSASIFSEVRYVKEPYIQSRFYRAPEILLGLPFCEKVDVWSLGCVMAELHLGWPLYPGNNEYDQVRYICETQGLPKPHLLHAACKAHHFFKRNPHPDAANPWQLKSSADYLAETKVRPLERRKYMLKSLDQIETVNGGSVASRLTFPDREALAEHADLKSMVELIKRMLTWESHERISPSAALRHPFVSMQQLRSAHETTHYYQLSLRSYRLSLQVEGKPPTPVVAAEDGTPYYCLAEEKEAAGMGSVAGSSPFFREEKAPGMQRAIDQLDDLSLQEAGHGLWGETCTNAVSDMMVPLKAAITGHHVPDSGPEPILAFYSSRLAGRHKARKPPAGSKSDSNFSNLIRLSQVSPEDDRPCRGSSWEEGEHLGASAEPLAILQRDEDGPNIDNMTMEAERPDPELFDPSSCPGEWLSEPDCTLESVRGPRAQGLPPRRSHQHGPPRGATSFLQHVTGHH

[2] = biological target: T2, Eukaryotic translation initiation factor 2-alpha kinase 3 (Homo sapiens) (UniProt Q9NZJ5); assay: Inhibition of human recombinant PEK at 500 nM related to control ULK1
T2 sequence (whole entry): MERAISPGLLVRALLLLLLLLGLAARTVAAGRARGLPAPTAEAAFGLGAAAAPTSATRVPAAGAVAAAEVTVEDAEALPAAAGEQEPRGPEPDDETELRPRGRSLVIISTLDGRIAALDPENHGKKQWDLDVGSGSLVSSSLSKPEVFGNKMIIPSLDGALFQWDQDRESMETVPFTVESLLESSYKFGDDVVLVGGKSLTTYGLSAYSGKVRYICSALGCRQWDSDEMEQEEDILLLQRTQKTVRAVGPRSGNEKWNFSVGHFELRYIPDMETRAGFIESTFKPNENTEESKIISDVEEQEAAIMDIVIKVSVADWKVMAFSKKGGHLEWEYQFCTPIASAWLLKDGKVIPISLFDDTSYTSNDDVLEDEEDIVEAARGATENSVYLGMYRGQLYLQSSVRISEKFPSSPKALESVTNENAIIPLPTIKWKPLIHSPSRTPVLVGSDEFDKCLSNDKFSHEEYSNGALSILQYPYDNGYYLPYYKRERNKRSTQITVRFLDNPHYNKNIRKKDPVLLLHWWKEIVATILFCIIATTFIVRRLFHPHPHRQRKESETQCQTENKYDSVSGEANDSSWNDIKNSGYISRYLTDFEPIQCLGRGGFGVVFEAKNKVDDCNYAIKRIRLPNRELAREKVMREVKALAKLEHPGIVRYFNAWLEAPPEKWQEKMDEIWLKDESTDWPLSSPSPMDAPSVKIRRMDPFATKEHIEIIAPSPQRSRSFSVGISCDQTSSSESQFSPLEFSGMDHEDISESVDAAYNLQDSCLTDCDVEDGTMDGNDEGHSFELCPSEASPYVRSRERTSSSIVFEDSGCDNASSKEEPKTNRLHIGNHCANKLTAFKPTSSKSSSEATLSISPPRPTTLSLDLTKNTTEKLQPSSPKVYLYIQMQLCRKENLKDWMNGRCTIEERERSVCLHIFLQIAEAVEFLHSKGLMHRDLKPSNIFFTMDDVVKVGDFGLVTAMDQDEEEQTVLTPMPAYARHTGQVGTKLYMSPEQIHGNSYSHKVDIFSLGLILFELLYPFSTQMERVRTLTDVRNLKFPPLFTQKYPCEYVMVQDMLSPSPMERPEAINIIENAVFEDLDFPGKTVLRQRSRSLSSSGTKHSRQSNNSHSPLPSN

[3] = biological target: Serine/threonine-protein kinase 32B (Homo sapiens) (UniProt Q9NY57); assay: Inhibition of human recombinant YANK2 at 500 nM in presence of ATP by radiometric assay relative to control
Serine/threonine-protein kinase 32B (Homo sapiens), sequence (Q9NY57 whole entry): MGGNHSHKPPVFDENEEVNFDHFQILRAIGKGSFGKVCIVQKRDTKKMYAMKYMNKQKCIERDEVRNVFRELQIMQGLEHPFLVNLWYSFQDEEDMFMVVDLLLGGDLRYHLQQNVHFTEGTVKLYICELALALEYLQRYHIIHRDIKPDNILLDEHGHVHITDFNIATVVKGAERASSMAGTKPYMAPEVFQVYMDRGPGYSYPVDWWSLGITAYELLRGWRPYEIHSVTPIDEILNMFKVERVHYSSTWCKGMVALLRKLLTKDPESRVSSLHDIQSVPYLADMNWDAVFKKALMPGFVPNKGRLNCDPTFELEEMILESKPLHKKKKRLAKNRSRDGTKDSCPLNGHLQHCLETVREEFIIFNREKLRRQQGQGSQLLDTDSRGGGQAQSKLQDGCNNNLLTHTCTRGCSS

[4] = biological target: Ephrin type-A receptor 5 (Homo sapiens) (UniProt P54756); assay: Inhibition of human recombinant EphA5 at 40 nM in presence of ATP by radiometric assay relative to control
Ephrin type-A receptor 5 (Homo sapiens), sequence (P54756 whole entry): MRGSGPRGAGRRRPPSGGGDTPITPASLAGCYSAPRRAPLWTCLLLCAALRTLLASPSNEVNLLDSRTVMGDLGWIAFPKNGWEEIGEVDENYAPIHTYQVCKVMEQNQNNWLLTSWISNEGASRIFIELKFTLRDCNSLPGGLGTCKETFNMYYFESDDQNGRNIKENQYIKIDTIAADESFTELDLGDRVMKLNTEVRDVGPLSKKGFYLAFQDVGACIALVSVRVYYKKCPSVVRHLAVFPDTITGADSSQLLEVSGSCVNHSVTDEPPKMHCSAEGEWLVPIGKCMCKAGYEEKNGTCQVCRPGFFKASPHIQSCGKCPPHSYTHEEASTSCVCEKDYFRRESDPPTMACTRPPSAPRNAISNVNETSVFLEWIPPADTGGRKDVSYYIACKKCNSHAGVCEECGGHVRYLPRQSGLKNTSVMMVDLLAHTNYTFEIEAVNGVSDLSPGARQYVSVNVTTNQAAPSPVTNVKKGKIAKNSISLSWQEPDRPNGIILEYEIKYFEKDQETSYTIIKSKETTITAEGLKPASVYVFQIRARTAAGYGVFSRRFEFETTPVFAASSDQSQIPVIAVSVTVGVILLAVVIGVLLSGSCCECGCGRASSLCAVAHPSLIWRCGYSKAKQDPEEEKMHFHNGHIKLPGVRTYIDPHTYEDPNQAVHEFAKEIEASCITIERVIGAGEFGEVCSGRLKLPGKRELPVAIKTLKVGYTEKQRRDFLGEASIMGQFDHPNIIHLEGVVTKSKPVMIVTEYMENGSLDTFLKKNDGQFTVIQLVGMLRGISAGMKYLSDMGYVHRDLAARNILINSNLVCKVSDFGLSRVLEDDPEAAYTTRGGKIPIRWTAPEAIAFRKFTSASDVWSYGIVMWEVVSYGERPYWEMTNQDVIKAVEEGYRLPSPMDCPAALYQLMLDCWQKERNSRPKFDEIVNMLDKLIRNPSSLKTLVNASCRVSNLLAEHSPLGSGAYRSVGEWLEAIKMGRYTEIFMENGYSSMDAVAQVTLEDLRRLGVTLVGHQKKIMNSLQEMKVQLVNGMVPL

[5] = biological target: T3, Serine/threonine-protein kinase Sgk3 (Homo sapiens) (UniProt Q96BR1); assay: Inhibition of human recombinant SGK3 at 40 nM in presence of ATP by radiometric assay relative to control
T3 sequence (whole entry): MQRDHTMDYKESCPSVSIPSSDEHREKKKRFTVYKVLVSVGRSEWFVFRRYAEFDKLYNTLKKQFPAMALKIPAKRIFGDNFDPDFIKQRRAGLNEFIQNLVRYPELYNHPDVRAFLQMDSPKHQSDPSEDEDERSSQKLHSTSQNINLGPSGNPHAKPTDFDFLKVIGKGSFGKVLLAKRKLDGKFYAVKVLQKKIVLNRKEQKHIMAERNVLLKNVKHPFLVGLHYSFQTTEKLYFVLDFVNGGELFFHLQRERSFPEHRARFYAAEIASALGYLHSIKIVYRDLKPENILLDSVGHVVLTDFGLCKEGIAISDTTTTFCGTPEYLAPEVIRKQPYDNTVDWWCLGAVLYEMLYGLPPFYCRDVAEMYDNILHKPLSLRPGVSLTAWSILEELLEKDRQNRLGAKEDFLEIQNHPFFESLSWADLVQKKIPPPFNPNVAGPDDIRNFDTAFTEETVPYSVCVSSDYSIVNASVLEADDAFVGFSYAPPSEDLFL

[6] = biological target: Tyrosine-protein kinase CSK (Homo sapiens) (UniProt P41240); assay: Inhibition of human recombinant CSK at 15 nM in presence of ATP by radiometric assay relative to control
Tyrosine-protein kinase CSK (Homo sapiens), sequence (P41240 2-450 limits assumed): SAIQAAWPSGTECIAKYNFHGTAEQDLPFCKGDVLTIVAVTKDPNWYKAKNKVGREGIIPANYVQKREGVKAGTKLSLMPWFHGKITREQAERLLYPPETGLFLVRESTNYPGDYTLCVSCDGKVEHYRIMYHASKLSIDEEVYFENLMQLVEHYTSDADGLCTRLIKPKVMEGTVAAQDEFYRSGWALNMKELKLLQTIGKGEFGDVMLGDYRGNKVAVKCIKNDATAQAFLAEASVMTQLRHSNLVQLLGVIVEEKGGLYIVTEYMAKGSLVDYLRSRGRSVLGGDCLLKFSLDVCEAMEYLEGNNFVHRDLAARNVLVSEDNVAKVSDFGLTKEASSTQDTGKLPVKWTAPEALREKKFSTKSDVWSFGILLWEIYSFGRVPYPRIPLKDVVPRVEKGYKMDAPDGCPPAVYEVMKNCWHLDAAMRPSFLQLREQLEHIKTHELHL

[7] = biological target: Serine/threonine-protein kinase PAK 1 (Homo sapiens) (UniProt Q13153); assay: Inhibition of human recombinant PAK1 at 15 nM in presence of ATP by radiometric assay relative to control
Serine/threonine-protein kinase PAK 1 (Homo sapiens), sequence (Q13153 whole entry, looked up): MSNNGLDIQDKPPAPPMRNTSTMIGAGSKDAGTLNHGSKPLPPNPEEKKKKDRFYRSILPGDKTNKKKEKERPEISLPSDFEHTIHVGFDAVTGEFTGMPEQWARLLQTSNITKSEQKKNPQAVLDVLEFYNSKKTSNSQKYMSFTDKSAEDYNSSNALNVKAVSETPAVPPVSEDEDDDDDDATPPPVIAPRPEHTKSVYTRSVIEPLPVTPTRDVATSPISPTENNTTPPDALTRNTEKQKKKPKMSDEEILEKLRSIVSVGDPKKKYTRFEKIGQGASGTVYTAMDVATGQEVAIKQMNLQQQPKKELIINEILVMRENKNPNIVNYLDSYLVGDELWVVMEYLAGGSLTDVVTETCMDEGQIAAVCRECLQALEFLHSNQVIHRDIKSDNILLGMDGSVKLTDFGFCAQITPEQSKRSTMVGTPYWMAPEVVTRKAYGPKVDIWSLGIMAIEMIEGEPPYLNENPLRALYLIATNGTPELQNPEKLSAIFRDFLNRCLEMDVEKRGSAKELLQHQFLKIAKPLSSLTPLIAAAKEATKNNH

fold change (FC) [1]: 0.12 | fold change (FC) [2]: 0 | inhibition [3]: 2%
SMILES: CNC(=O)c1ccccc1Oc1nc(Nc2cc(OC)c(OC)c(OC)c2)ncc1Br

inhibition [4]: 0% | inhibition [5]: 0%
SMILES: O=C(N[C@@H](C1CC1)C(F)(F)F)c1cc(-c2cnn3cc(-c4ccc(F)cc4)cnc23)cs1

inhibition [6]: 12% | inhibition [7]: 0%
SMILES: CC(C)[C@H](NC(=O)c1cc(-c2cnn3cc(-c4ccc(OCCN5CCCCC5)cc4)cnc23)cs1)C(F)(F)F
